Results published in patent US20100168102A9, “Amide Derivatives as Kinase Inhibitors” (Devgen NV, priority 2005, published 2010).
Read-outs that look alike come from different tables or passages of the source.

How the values were obtained:
human ROCKα/ROCKII mix = target: T1, human ROCKα/ROCKII mix (Homo sapiens, UniProt O75116); experiment: Biochemical assay for ROCK (fluorescence polarization, ROCK IMAP Kit)
T1 construct: purchased Upstate Biotechnology 14-451
Experimental: The compounds were tested for inhibition of human ROCKα/ROCKII mix.
The inhibition assays were performed with a fluorescence polarization (FP) assay using the commercially available ROCK IMAP Kit from Molecular Devices (Product ID. No. R8093), essentially in accordance with the protocol supplied by the manufacturer. […] The enzyme mix ROCKα/ROCKII was obtained from Upstate Biotechnology (Product ID No 14-451).
In summary, the compound was screened in the wells of a 384 well plate for enzymatic inhibition with concentrations varying from 100 μM to 0.3 nM using a stepwise 3 (or 2)-fold dilution.
To perform the assay, 1 μl of a solution of the compound to be tested in DMSO (at each concentration) was added to 2 μl of a solution of the enzyme in 10 mM Tris-HCl , 10 mM MgCl2, 0.1% BSA, 0.05% NaN3, pH 7.2. The final concentration of the enzyme was 2.6 nM.
After incubating for 30 minutes at room temperature, 2 μl of a mixture of ATP and the protein substrate in 10 mM Tris-HCl, 10 mM MgCl2, 0.1% BSA, 0.05% NaN3, pH 7.2 was added. The final concentration of the ATP was 10 μM and final concentration of protein substrate was 0.2 μM.
After incubating for 60 minutes at room temperature, 12 μl of the IMAP Binding Solution (mix of the IMAP Binding Buffer A (1×) and the IMAP Binding Reagent (from the ROCK IMAP kit)) was added.
The mixture thus obtained (total volume: 17 μl) was incubated for 60 minutes at room temperature, upon which the fluorescence polarization was measured using an automated plate reader (Perkin Elmer, Model Envision 2100-0010 HTS) with FP filters: excitation filter FITC FP 480 and emission filters FITC FP P-pol 535 and FITC FP S-pol 535 (Perkin-Elmer). The results were fitted to a curve using the XL-Fit algorithm and IC50 values were calculated for each fitted curve, again using the XL-Fit algorithm.

PKC epsilon = target: T2, PKC epsilon (Homo sapiens, UniProt Q02156); experiment: Biochemical assay for PKC epsilon (fluorescence polarization, Protein Kinase C Assay Kit, Red); details: read-out: IC50 μM PKCε
T2 construct: purchased Invitrogen P2282
T2 sequence (Q02156 1-737): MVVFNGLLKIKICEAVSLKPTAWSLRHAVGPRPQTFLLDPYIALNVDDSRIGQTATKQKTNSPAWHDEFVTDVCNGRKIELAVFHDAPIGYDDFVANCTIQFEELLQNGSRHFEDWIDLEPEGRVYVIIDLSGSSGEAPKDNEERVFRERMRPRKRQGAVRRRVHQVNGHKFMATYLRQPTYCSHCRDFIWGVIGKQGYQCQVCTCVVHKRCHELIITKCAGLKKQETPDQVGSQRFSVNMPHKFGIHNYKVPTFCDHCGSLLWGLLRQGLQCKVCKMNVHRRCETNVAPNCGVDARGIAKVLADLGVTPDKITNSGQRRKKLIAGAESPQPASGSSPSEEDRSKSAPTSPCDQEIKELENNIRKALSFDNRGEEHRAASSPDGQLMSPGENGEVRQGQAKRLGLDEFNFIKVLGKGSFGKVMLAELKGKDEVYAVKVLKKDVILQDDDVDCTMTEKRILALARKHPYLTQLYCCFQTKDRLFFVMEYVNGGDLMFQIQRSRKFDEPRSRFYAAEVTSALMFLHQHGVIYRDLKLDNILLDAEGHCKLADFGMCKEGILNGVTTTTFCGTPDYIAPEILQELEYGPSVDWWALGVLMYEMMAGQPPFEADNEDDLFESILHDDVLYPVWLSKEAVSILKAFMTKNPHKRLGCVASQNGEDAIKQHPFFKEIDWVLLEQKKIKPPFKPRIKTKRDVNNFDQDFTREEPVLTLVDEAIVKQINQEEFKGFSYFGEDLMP
Experimental: The compounds were tested for inhibition of PKC epsilon.
The inhibition assays were performed with a fluorescence polarization (FP) assay using the commercially available Protein Kinase C Assay Kit, Red, from Invitrogen (Product ID. No. P2941), essentially in accordance with the protocol supplied by the manufacturer. […] The isozyme PKC epsilon was also obtained from Invitrogen (Product ID No. P2282).
Staurosporine was used as a positive control (2 μM).
To perform the assay, 2 μl of a solution of the compound to be tested in DMSO (at each concentration) was added to 6 μl of a solution of the enzyme in 10 mM HEPES, 5 mM dithiotreitol, 0.1% Triton X-100, pH 7.4. The final concentration of the enzymes was 10 ng/ml.
After incubating for 30 minutes at room temperature, 4 μl of a mixture of ATP and the protein substrate in 60 mM HEPES (pH7.4), 15 mM MgCl2, 0.3 mM CaCl2, 0.06% NP40 was added.
After incubating for 80 minutes at room temperature, 3 μl of a mix solution of 500 mM EDTA (stop solution) and the Rhodamine-based PKC Red Tracer (from the Protein Kinase C Assay Kit) in BGG/phosphate buffer (pH7.4) with 0.02% NaN3 and 0.1% Triton X-100 was added and 5 μl of a the Anti-Phosphoserine antibody (also from the Protein Kinase C Assay Kit) in BGG/phosphate buffer (pH7.4) with 0.02% NaN3.
The results were fitted to a curve using the XL-Fit algorithm and […] were calculated for each fitted curve, again using the XL-Fit algorithm.

[1] = compounds of Formula XIV, Table 3

T1 sequence (O75116 11-552 limits assumed): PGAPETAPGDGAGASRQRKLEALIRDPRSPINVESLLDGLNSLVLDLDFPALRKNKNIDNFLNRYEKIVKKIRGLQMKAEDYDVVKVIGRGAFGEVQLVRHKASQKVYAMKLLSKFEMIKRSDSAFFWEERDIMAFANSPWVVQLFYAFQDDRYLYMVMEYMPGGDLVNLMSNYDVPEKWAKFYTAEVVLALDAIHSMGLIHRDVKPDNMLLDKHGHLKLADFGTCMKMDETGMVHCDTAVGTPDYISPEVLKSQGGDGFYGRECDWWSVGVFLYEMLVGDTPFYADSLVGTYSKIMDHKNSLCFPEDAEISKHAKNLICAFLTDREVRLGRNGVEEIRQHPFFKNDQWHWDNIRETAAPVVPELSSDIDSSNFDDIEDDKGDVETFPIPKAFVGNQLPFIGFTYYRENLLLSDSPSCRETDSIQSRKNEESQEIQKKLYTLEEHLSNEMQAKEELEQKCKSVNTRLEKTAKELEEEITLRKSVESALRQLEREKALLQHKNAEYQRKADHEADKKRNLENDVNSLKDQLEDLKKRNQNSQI

Molecule | IC50 (human ROCKα/ROCKII mix) [µM] | other results
4-(1-Amino-2-{[2-(4- trifluoromethyl-phenyl)- acetyl]-methyl- amino}-ethyl)- N-pyridin-4-yl-benzamide [Compound 458] | 0.5 to 5 | IC50 (PKC epsilon): 5 to 50 µM
4-(1-Amino-2-{[2-(4-fluoro- phenyl)-2-methyl-propionyl]- methyl- amino}-ethyl)- N-pyridin-4-yl-benzamide [Compound 472] | 0.5 to 5 | –
NC(c1ccc(C(=O)Nc2ccncc2)cc1)C1CCCN1C(=O)C1CCOc2ccc(F)cc21 (stereo not shown) [Compound 617, 4-{Amino[1-(6-fluoro-chroman-4-carbonyl)-pyrrolidin-2-yl]-methyl}-N-pyridin-4-benzamide] | 0.5 to 5 | IC50 (PKC epsilon): 0.5 to 5 µM
NC(CC(=O)NCc1cccc([N+](=O)[O-])c1)c1ccc(C(=O)Nc2ccncc2)cc1 (stereo not shown) [Compound 272, 4-[1-Amino-2-(3-nitro-benzylcarbamoyl)-ethyl]-N-pyridin-4-yl-benzamide] | – | IC50 (human ROCKα/ROCKII mix; [1]): 0.05 to 0.5 µM; IC50 (PKC epsilon; [1]): 0.5 to 5 µM
NC(c1ccc(C(=O)Nc2ccncc2)cc1)C1CCCN1C(=O)Cc1cccs1 (stereo not shown) [Compound 547, 4-{Amino-[1-(2-thiophen-2-yl-acetyl)-pyrrolidin-2-yl]-methyl}-N-pyridin-4-yl-benzamide] | 0.05 to 0.5 | IC50 (PKC epsilon): 5 to 50 µM
COc1ccccc1CC(=O)N1CCCC1C(N)c1ccc(C(=O)Nc2ccncc2)cc1 (stereo not shown) [Compound 526, 4-(Amino-{1-[2-(2-methoxy-phenyl)-acetyl]-pyrrolidin-2-yl]-methyl}-N-pyridin-4-yl-benzamide] | 0.5 to 5 | IC50 (PKC epsilon): 5 to 50 µM
CN(CC(N)c1ccc(C(=O)Nc2ccncc2)cc1)C(=O)C(C)(C)c1ccc(F)c(Cl)c1 (stereo not shown) [Compound 505, 4-(1-Amino-2-{[2-(3-chloro-4-fluoro-phenyl)-2-methyl-propionyl]-methyl-amino}-ethyl)-N-pyridin-4-yl-benzamide] | 0.5 to 5 | IC50 (PKC epsilon): 5 to 50 µM
CC(C)(C)c1ccc(NC(=S)NCC(N)c2ccc(C(=O)Nc3ccncc3)cc2)cc1 (stereo not shown) [Compound 18, 4-{1-amino-2-[3-(4-tert-butyl-phenyl)-thioureido]-ethyl}-N-pyridin-4-yl-benzamide] | 0.5 to 5 | IC50 (PKC epsilon): 5 to 50 µM
4-(1-Amino-2-{[2-(2,3,4- trimethoxy-phenyl)-acetyl]- methyl-amino}-ethyl)-N- pyridin-4-yl-benzamide [Compound 431] | 5 to 50 | –
Cc1ccc(NC(=O)CC(N)c2ccc(C(=O)Nc3ccncc3)cc2)cc1 (stereo not shown) [Compound 317, 4-(1-Amino-2-p-tolylcarbamoyl-ethyl)-N-pyridin-4-yl-benzamide] | – | IC50 (human ROCKα/ROCKII mix; [1]): 0.05 to 0.5 µM
COc1ccc(CNC(=O)NCC(N)c2ccc(C(=O)Nc3ccncc3)cc2)cc1 (stereo not shown) [Compound 10, 4-{1-amino-2-[3-(4-methoxy-benzyl)-ureido]-ethyl}-N-pyridin-4-yl-benzamide] | 0.05 to 0.5 | –
Cc1ccccc1CNC(=O)NCC(N)c1ccc(C(=O)Nc2ccncc2)cc1 (stereo not shown) [Compound 9, 4-{1-amino-2-[3-(2-methyl-benzyl)-ureido]-ethyl}-N-pyridin-4-yl-benzamide] | 0.05 to 0.5 | –
4-(1-Amino-2-{[1-(4-chloro- phenyl)- cyclopentanecarbonyl]- methyl- amino}-ethyl)- N-pyridin-4-yl-benzamide [Compound 465] | 0.5 to 5 | –
NC(CNC(=O)c1ccc2ccccc2n1)c1ccc(C(=O)Nc2ccncc2)cc1 (stereo not shown) [Compound 112, Quinoline-2-carboxylic acid {2-amino-2-[4-(pyridin-4-ylcarbamoyl)-phenyl]-ethyl}-amide] | – | IC50 (human ROCKα/ROCKII mix; Table 2, compounds of Formula XIII): 0.05 to 0.5 µM
4-(1-Amino-2-{[2-(4-chloro- phenyl)-2-methyl-propionyl]- methyl- amino}-ethyl)- N-pyridin-4-yl-benzamide [Compound 462] | 0.5 to 5 | –
NC(CNC(=O)Nc1ccc(F)cc1)c1ccc(C(=O)Nc2ccncc2)cc1 (stereo not shown) [Compound 19, 4-{1-amino-2-[3-(4-fluoro-phenyl)-ureido]-ethyl}-N-pyridin-4-yl-benzamide] | 0.05 to 0.5 | –
4-(1-Amino-2-{[1-(4-chloro- phenyl)- cyclopropanecarbonyl]- methyl- amino}-ethyl)- N-pyridin-4-yl-benzamide [Compound 463] | 0.5 to 5 | –
CN(CC(N)c1ccc(C(=O)Nc2ccncc2)cc1)C(=O)C1CC(=O)c2ccccc21 (stereo not shown) [Compound 508, 3-Oxo-indan-1-carboxylic acid {2-amino-2-[4-(pyridin-4-ylcarbamoyl)-phenyl]-ethyl}-methyl-amide] | 0.5 to 5 | –
CN(Cc1ccccc1)C(=O)CC(N)c1ccc(C(=O)Nc2ccncc2)cc1 (stereo not shown) [Compound 214, 4-[1-Amino-2-(benzyl-methyl-carbamoyl)-ethyl]-N-pyridin-4-yl-benzamide] | – | IC50 (human ROCKα/ROCKII mix; [1]): 0.05 to 0.5 µM
4-[1-Amino-2-(methyl- phenethyl-carbamoyl)-ethyl]- N-pyridin-4-yl-benzamide [Compound 282] | – | IC50 (human ROCKα/ROCKII mix; [1]): 0.05 to 0.5 µM
CC(C)(C(=O)N1CCCC1C(N)c1ccc(C(=O)Nc2ccncc2)cc1)c1ccsc1 (stereo not shown) [Compound 550, 4-{Amino-[1-(2-methyl-2-thiophen-3-yl-propionyl)-pyrrolidin-2-yl]-methyl}-N-pyridin-4-yl-benzamide] | 0.5 to 5 | –
4-(Amino-{1-[2-(4-fluoro-phenyl)-2-methyl-propionyl]-pyrrolidin-2-yl}-methyl)-N-pyridin-4-yl-benzamide [Compound 586] | 0.5 to 5 | –
4-{Amino-[1-(2-methyl-2-thiophen-2-yl-propionyl)-pyrrolidin-2-yl]-methyl}-N-pyridin-4-yl-benzamide [Compound 548] | 0.5 to 5 | –
4-(1-Amino-2-{[1-(4-fluoro- phenyl)- cyclopropanecarbonyl]- methyl- amino}-ethyl)- N-pyridin-4-yl-benzamide [Compound 473] | 0.5 to 5 | –
CN(CC(N)c1ccc(C(=O)Nc2ccncc2)cc1)C(=O)Cc1ccc(F)c(F)c1 (stereo not shown) [Compound 484, 4-(1-Amino-2-{[2-(3,4-difluoro-phenyl)-acetyl]-methyl-amino}-ethyl)-N-pyridin-4-yl-benzamide] | 0.5 to 5 | –
COc1ccc(Cl)cc1NC(=O)NCC(N)c1ccc(C(=O)Nc2ccncc2)cc1 (stereo not shown) [Compound 27, 4-{1-amino-2-[3-(5-chloro-2-methoxy-phenyl)-ureido]-ethyl}-N-pyridin-4-yl-benzamide] | 0.05 to 0.5 | –
4-(1-Amino-2-{[1-(4-chloro- phenyl)- cyclobutanecarbonyl]- methyl- amino}-ethyl)- N-pyridin-4-yl-benzamide [Compound 464] | 0.5 to 5 | –
